Source: patent US20230111656A1, “METHODS OF CONTROLLING OR PREVENTING INFESTATION OF SOYBEAN PLANTS BY THE PHYTOPATHOGENIC MICROORGANISM CORYNESPORA CASSIICOLA” (SYNGENTA CROP PROTECTION AG, priority 2020, published 2023)

System: Corynespora cassiicola
Test: Liquid culture growth inhibition of Corynespora cassiicola (PDB, 96-well microtiter plate, photometric)
Type: cell-based
Conditions: 24 C, 3-4 days, photometric at 620 nm, compared to untreated control
Protocol: Conidia of the fungus from cryogenic storage were directly mixed into nutrient broth (PDB potato dextrose broth). A DMSO solution of the test compounds was placed into a microtiter plate (96-well format) and the nutrient broth containing the fungal spores was added to it. The test plates were incubated at 24 C and the inhibition of growth (% control of Corynespora cassiicola) was determined photometrically after 3-4 days at 620 nm. The activity of a compound is derived by comparing the inhibition of growth in the treated test solution to the growth in the untreated check. The concentration of the compounds was 0.74, 0.25, and 0.082 ppm.

CC1(C)N=C(c2cnc3ccccc3c2)c2ccccc2C1(F)F
control of Corynespora cassiicola (inhibition of growth) (0.082 ppm): at least 20% | control of Corynespora cassiicola (inhibition of growth) (0.25 ppm): at least 50% | control of Corynespora cassiicola (inhibition of growth) (0.74 ppm): at least 70%
